Experimental data published in patent publication US10759785B2, “Compounds” (ENTERPRISE THERAPEUTICS LIMITED, priority 2016, dated 2020).
Where a name gives a salt, the structure may show the parent alone.

Biological target: T1, ENaC (Homo sapiens, UniProt P37088+P51168+P51170)
T1 construct: host or cells: primary human bronchial epithelial cells (HBECs) differentiated at an air-liquid interface
T1 sequence (P37088 1-669): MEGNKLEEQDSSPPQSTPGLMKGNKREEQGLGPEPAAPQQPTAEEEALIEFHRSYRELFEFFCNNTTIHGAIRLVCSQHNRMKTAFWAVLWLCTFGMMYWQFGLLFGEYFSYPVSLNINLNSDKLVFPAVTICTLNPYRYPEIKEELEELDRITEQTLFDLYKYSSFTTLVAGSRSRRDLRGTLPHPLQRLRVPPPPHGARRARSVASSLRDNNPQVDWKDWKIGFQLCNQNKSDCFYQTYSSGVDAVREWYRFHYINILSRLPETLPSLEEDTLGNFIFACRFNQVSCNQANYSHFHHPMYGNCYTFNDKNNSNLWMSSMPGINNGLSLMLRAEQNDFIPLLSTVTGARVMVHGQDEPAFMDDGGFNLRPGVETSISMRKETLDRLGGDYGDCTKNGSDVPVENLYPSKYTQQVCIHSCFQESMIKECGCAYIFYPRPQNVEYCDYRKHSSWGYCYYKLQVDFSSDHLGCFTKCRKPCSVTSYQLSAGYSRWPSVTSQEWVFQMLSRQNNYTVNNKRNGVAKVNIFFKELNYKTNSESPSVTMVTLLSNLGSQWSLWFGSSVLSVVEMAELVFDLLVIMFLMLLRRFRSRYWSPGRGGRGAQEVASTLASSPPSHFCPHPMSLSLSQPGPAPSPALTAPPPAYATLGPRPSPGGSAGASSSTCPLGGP
T1 sequence (P51168 1-640): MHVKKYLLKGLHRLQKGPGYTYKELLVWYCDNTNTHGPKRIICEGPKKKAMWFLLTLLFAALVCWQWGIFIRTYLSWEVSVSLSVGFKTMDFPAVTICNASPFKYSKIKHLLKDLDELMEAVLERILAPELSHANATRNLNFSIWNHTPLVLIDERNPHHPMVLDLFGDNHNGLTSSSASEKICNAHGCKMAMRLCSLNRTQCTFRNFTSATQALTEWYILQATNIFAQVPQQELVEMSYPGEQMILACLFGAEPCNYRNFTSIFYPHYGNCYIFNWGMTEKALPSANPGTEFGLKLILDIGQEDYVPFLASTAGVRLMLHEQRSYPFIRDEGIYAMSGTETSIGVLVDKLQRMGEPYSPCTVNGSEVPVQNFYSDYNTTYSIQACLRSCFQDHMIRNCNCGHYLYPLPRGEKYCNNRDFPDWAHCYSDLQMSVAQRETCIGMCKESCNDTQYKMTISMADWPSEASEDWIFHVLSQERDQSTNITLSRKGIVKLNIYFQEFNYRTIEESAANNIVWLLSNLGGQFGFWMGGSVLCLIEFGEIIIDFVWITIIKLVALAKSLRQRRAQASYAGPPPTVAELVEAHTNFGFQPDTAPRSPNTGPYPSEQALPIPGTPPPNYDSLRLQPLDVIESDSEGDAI
T1 sequence (P51170 1-649): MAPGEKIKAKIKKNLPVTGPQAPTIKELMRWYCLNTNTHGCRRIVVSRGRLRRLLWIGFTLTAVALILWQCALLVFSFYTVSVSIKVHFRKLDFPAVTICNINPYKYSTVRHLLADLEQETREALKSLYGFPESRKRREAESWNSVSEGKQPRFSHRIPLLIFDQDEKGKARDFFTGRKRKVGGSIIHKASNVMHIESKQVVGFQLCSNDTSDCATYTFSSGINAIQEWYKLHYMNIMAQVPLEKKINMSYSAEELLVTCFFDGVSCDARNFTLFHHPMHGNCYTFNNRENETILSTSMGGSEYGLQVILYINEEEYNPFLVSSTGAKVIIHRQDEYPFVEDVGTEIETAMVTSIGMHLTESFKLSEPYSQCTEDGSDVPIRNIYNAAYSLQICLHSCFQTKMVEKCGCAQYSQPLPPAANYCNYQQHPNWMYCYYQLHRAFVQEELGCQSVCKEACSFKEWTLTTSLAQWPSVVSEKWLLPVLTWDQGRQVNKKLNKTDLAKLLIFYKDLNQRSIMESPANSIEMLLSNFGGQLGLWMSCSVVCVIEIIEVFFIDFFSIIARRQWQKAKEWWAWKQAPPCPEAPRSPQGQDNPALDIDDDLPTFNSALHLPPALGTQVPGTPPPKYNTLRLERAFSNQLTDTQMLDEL
Experiment: Short circuit current assay to determine ENaC blocker potency in human bronchial epithelial cells
Format: cell-based
Conditions: 50% inhibition of total amiloride-sensitive ISC, HBECs, apical addition; read-out: Averages. ENaC Ic50 μm Avg
Protocol: Example 27—Short Circuit Current Assay to Determine ENaC Blocker Potency in Human Bronchial Epithelial Cells
Human bronchial epithelial cells (HBECs) (Lonza, UK) were cultured using a modification of the method described by Coote et al, (2008). Cells were seeded into plastic T-75 flasks and grown in Bronchial Epithelial Cell Growth Medium (BEGM) (Lonza, UK) supplemented with bovine pituitary extract (52 ng/mL), hydrocortisone (0.5 μg/mL), human recombinant Epidermal Growth Factor (0.5 ng/mL), epinephrine (0.5 ng/mL), transferrin (10 ng/mL), insulin (5 ng/mL), retinoic acid (0.1 ng/mL), triiodothyronine (6.5 ng/mL), gentamycin (50 μg/mL) and amphotericin-B (50 ng/mL). Medium was changed every 48 hours until cells were 90% confluent. Cells were then passaged and seeded (8.25×10^5 cells/insert) onto polycarbonate Snapwell™ inserts (Costar, UK) in differentiation media containing 50% DMEM in BGEM with the same supplements as above but without triiodothyronine and a final retinoic acid concentration of 50 nM (all-trans retinoic acid; Sigma-Aldrich, UK). Cells were maintained submerged for the first 7 days in culture after which time they were exposed to an apical air interface for the remainder of the culture period. From the first day of establishment of an ALI, HBEC were fed with a DMEM:HAMS F-12 (1:1) media containing 2% Ultroser G (Pall BioSepra, France) with gentamycin (50 μg/mL) and amphotericin B (50 ng/mL). Cells were used for short-circuit current assay between days 14-21 after the establishment of the ALI. At all stages of culture, cells were maintained at 37′C in 5% CO2 in an air incubator.
Short-Circuit Current (ISC) Measurements
Snapwell inserts were mounted in Costar Vertical Diffusion Chambers (Costar, UK) and were bathed with continuously gassed Ringer solution (5% CO2 in O2; pH 7.4) maintained at 37° C. containing (in mM): 120 NaCl, 25 NaHCO3, 3.3 KH2PO4, 0.8 K2HPO4, 1.2 CaCl2, 1.2 MgCl2 and 10 glucose. The solution osmolarity was always between 280-300 mOsm/kg H2O for all physiological salt solutions used. Cells were voltage clamped to 0 mV (model EVC4000, WPI). Transepithelial resistance (RT) was measured by applying a 2 mV pulse at 30 s intervals and calculating RT by Ohm's law. Data were recorded using a PowerLab workstation (ADInstruments, UK).
ENaC blocker compounds were added to the apical chamber from a 1000-fold stock solution (prepared in DMSO) to achieve a cumulative concentration response in terms of the inhibition of the basal ISC. At the completion of the concentration response, a supra-maximal concentration of amiloride (10 μM) was added. The concentration of test compound that induced a 50% inhibition of the total amiloride-sensitive ISC (IC50) was calculated using GraphPad Prism v6.05.

| IC50 [nM] | Compound |
| --- | --- |
| 2 | CCn1c(CNC(=O)c2nc(Br)cnc2N)[n+](C)c2ccc(Cl)cc21.O=CO.O=C[O-] [Example 11, 2-{[(3-amino-6-bromopyrazin-2-yl)formamido]methyl}-6-chloro-1-ethyl-3-methyl-1H-1,3-benzodiazol-3-ium formic acid formate] |
| 2 | CCn1c(CNC(=O)c2nc(Br)cnc2N)[n+](CC)c2ccc(-c3cnn(C4CCN(C[C@H](O)[C@@H](O)[C@H](O)[C@H](O)CO)CC4)c3)cc21.O=CO.[Cl-] [Example 23, 2-{[(3-amino-6-bromopyrazin-2-yl)formamido]methyl}-1,3-diethyl-6-(1-{1-[(2S,3R,4R,5R)-2,3,4,5,6-pentahydroxyhexyl]piperidin-4-yl}-1H-pyrazol-4-yl)-1H-1,3-benzodiazol-3-ium formic acid chloride] |
| 224 | CCc1cnc(N)c(C(=O)NCc2n(CC)c3cc(OC)ccc3[n+]2C)n1.[I-] [Example 8, 2-{[(3-amino-6-ethylpyrazin-2-yl)formamido]methyl}-1-ethyl-6-methoxy-3-methyl-1H-1,3-benzodiazol-3-ium iodide] |
| 2 | CCn1c(CNC(=O)c2nc(Br)cnc2N)[n+](CC)c2ccc(OCCN)cc21.Cl.[Cl-] [Example 25, 2-{[(3-Amino-6-bromopyrazin-2-yl)formamido]methyl}-6-(2-aminoethoxy)-1,3-diethyl-1H-1,3-benzodiazol-3-ium hydrochloride chloride] |
| 4 | CCn1c(CNC(=O)c2nc(C)cnc2N)[n+](C)c2ccc(OC)cc21.[I-] [Example 7, 2-{[(3-amino-6-methylpyrazin-2-yl)formamido]methyl}-1-ethyl-6-methoxy-3-methyl-1H-1,3-benzodiazol-3-ium iodide] |
| 4 | CCn1c(CNC(=O)c2nc(Br)cnc2N)[n+](Cc2ccccc2)c2ccc(C(F)(F)F)cc21.O=C[O-] [Example 19, 2-{[(3-Amino-6-bromopyrazin-2-yl)formamido]methyl}-3-benzyl-1-ethyl-6-(trifluoromethyl)-1H-1,3-benzodiazol-3-ium formate] |
| 2 | CCn1c(CNC(=O)c2nc(Cl)cnc2N)[n+](C)c2ccc(OC)cc21.[I-] [Example 5, 2-{[(3-amino-6-chloropyrazin-2-yl)formamido]methyl}-1-ethyl-6-methoxy-3-methyl-1H-1,3-benzodiazol-3-ium iodide] |
| 8 | CCn1c(CNC(=O)c2nc(C#N)cnc2N)[n+](CC)c2ccc(OC)cc21 [Example 26, 2-{[(3-amino-6-cyanopyrazin-2-yl)formamido]methyl}-1,3-diethyl-6-methoxy-1H-1,3-benzodiazol-3-ium formate] |
| 74 | CCn1c(CNC(=O)c2nc(SC)cnc2N)[n+](C)c2ccc(OC)cc21.[I-] [Example 9, 2-({[3-amino-6-(methylsulfanyl)pyrazin-2-yl]formamido}methyl)-1-ethyl-6-methoxy-3-methyl-1H-1,3-benzodiazol-3-ium iodide] |
| 1 | CCn1c(CNC(=O)c2nc(Br)cnc2N)[n+](CCO)c2ccc(OC)cc21.O=C[O-] [Example 3, 2-{[(3-amino-6-bromopyrazin-2-yl)formamido]methyl}-1-ethyl-3-(2-hydroxyethyl)-6-methoxy-1H-1,3-benzodiazol-3-ium formate] |
| 2 | CCn1c(CNC(=O)c2nc(Br)cnc2N)[n+](CC)c2ccc(C(=O)OC)cc21.[I-] [Example 15, 2-{[(3-amino-6-bromopyrazin-2-yl)formamido]methyl}-1,3-diethyl-6-(methoxycarbonyl)-1H-1,3-benzodiazol-3-ium iodide] |
| 4 | CCn1c(CNC(=O)c2nc(Br)cnc2N)[n+](CC)c2ccc(C(=O)N[C@H]3CCOC3=O)cc21 [Example 18, 2-{[(3-amino-6-bromopyrazin-2-yl)formamido]methyl}-1,3-diethyl-6-{[(3S)-2-oxooxolan-3-yl]carbamoyl}-1H-1,3-benzodiazol-3-ium formate] |
| 3 | CCn1c(CNC(=O)c2nc(Br)cnc2N)[n+](C)c2ccc(OC(F)(F)F)cc21.O=C[O-] [Example 14, 2-{[(3-amino-6-bromopyrazin-2-yl)formamido]methyl}-1-ethyl-3-methyl-6-(trifluoromethoxy)-1H-1,3-benzodiazol-3-ium formate] |
| 3 | CCn1c(CNC(=O)c2nc(Br)cnc2N)[n+](CC)c2ccc(C(=O)N[C@@H]3CCOC3=O)cc21 [Example 17, 2-{[(3-amino-6-bromopyrazin-2-yl)formamido]methyl}-1,3-diethyl-6-{[(3R)-2-oxooxolan-3-yl]carbamoyl}-1H-1,3-benzodiazol-3-ium formate] |
| 4 | CCn1c(CNC(=O)c2nc(Br)cnc2N)[n+](C)c2ccc(C(F)(F)F)cc21.[I-] [Example 13, 2-{[(3-amino-6-bromopyrazin-2-yl)formamido]methyl}-1-ethyl-3-methyl-6-(trifluoromethyl)-1H-1,3-benzodiazol-3-ium iodide] |

| Compound | IC50 [nM] |
| --- | --- |
| CCn1c(CNC(=O)c2nc(Br)cnc2N)[n+](CC)c2ccc(OCCNC(=O)OC(C)(C)C)cc21.O=C[O-] [Example 24, 2-{[(3-amino-6-bromopyrazin-2-yl)formamido]methyl}-6-(2-{[(tert-butoxy)carbonyl]amino}ethoxy)-1,3-diethyl-1H-1,3-benzodiazol-3-ium formate] | 2 |
